Values joined by “and” are separate entries in the source; they are usually repeats but may differ in a detail not shown here. Equal values may be shown once. Inconclusive results and toxic doses are left out.
Test system: P388 leukemia ip, CD2F1 mice, survival T/C
Test: NCI In Vivo Anticancer Drug Screen. Data for tumor model P388 Leukemia (intraperitoneal) in CD2F1 (CDF1) mice
Settings: endpoint: median survival time, higher = longer survival
Summary of the method: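 Mice carrying the transplanted tumor received test compound or vehicle. Survival was recorded in each group, and the value is the treated-group measurement divided by that of the vehicle-treated control group.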

In the case of `CC(C)NC(=O)OCc1c(COC(=O)NC(C)C)c(-c2ccc(Cl)c(Cl)c2)n2c1CCC2`, the T/C (dose: 0.58 mg/kg/injection, schedule: Q01DX009 (ip), vehicle: saline with Tween-80) is reported as 112 % of control, the T/C (dose: 1.17 mg/kg/injection, schedule: Q01DX009 (ip), vehicle: saline with Tween-80) is reported as 120 % of control and the T/C (dose: 1.5 mg/kg/injection, schedule: Q01DX001 (ip), vehicle: other) is reported as 109 % of control. For the same compound, the T/C (dose: 1.5 mg/kg/injection, schedule: Q01DX001 (iv), vehicle: other) was 102 % of control, the T/C (dose: 1.5 mg/kg/injection, schedule: Q01DX005 (ip), vehicle: other) was 122 % of control and the T/C (dose: 1.5 mg/kg/injection, schedule: Q01DX005 (iv), vehicle: other) was 107 % of control. For the same compound, the T/C (dose: 1.5 mg/kg/injection, schedule: Q01DX005 (oral), vehicle: other) was 98 % of control, the T/C (dose: 1.5 mg/kg/injection, schedule: Q01DX009 (oral), vehicle: other) was 100 % of control and the T/C (dose: 1.56 mg/kg/injection, schedule: Q01DX009 (ip), vehicle: distilled water + Tween-80) was 122 % of control. The T/C (dose: 2.34 mg/kg/injection, schedule: Q01DX009 (ip), vehicle: other) was 151 % of control, the T/C (dose: 2.34 mg/kg/injection, schedule: Q01DX009 (ip), vehicle: saline with Tween-80) was 151 % of control and the T/C (dose: 3.0 mg/kg/injection, schedule: Q01DX001 (ip), vehicle: other) was 116 % of control. The T/C (dose: 3.0 mg/kg/injection, schedule: Q01DX001 (iv), vehicle: other) was 100 % of control, the T/C (dose: 3.0 mg/kg/injection, schedule: Q01DX001 (oral), vehicle: other) was 98 % of control and the T/C (dose: 3.0 mg/kg/injection, schedule: Q01DX005 (iv), vehicle: other) was 108 % of control. For the same compound, the T/C (dose: 3.0 mg/kg/injection, schedule: Q01DX005 (oral), vehicle: other) was 100 % of control, the T/C (dose: 3.0 mg/kg/injection, schedule: Q01DX009 (oral), vehicle: other) was 100 % of control and the T/C (dose: 3.13 mg/kg/injection, schedule: Q01DX009 (ip), vehicle: distilled water + Tween-80) was 117 % of control. The T/C (dose: 4.69 mg/kg/injection, schedule: Q01DX009 (ip), vehicle: other) was 154 % of control, the T/C (dose: 4.69 mg/kg/injection, schedule: Q01DX009 (ip), vehicle: saline with Tween-80) was 150 % of control and 153 % of control and the T/C (dose: 6.0 mg/kg/injection, schedule: Q01DX001 (iv), vehicle: other) was 104 % of control. The T/C (dose: 6.0 mg/kg/injection, schedule: Q01DX001 (oral), vehicle: other) was 99 % of control, the T/C (dose: 6.0 mg/kg/injection, schedule: Q01DX005 (iv), vehicle: other) was 114 % of control and the T/C (dose: 6.0 mg/kg/injection, schedule: Q01DX005 (oral), vehicle: other) was 98 % of control. For the same compound, the T/C (dose: 6.0 mg/kg/injection, schedule: Q01DX009 (ip), vehicle: other) was 152 % of control, the T/C (dose: 6.0 mg/kg/injection, schedule: Q01DX009 (oral), vehicle: other) was 100 % of control and the T/C (dose: 6.25 mg/kg/injection, schedule: Q01DX005 (ip), vehicle: Klucel (hydroxypropylcellulose) (HPC)) was 164 % of control and 168 % of control. For the same compound, the T/C (dose: 6.25 mg/kg/injection, schedule: Q01DX005 (ip), vehicle: other) was 164 % of control, the T/C (dose: 6.25 mg/kg/injection, schedule: Q01DX005 (ip), vehicle: saline with Tween-80) was 151 % of control and the T/C (dose: 6.25 mg/kg/injection, schedule: Q01DX009 (ip), vehicle: other) was 155 % of control and 160 % of control. For the same compound, the T/C (dose: 6.25 mg/kg/injection, schedule: Q01DX009 (ip), vehicle: saline with Tween-80) was 158 % of control, the T/C (dose: 6.25 mg/kg/injection, schedule: Q01DX009 (oral), vehicle: distilled water + Tween-80) was 97 % of control and the T/C (dose: 7.5 mg/kg/injection, schedule: Q01DX005 (ip), vehicle: saline with Tween-80) was 118 % of control. For the same compound, the T/C (dose: 9.38 mg/kg/injection, schedule: Q01DX009 (ip), vehicle: other) was 154 % of control and 198 % of control, the T/C (dose: 9.38 mg/kg/injection, schedule: Q01DX009 (ip), vehicle: saline with Tween-80) was 157 % of control and the T/C (dose: 12.0 mg/kg/injection, schedule: Q01DX001 (iv), vehicle: other) was 113 % of control. The T/C (dose: 12.0 mg/kg/injection, schedule: Q01DX001 (oral), vehicle: other) was 100 % of control, the T/C (dose: 12.0 mg/kg/injection, schedule: Q01DX005 (ip), vehicle: other) was 153 % of control and the T/C (dose: 12.0 mg/kg/injection, schedule: Q01DX005 (oral), vehicle: other) was 100 % of control. The T/C (dose: 12.0 mg/kg/injection, schedule: Q01DX009 (ip), vehicle: other) was 169 % of control, the T/C (dose: 12.0 mg/kg/injection, schedule: Q01DX009 (oral), vehicle: other) was 102 % of control and the T/C (dose: 12.5 mg/kg/injection, schedule: Q01DX005 (ip), vehicle: Klucel (hydroxypropylcellulose) (HPC)) was 151 % of control and 160 % of control and 163 % of control. For the same compound, the T/C (dose: 12.5 mg/kg/injection, schedule: Q01DX005 (ip), vehicle: other) was 177 % of control, the T/C (dose: 12.5 mg/kg/injection, schedule: Q01DX009 (ip), vehicle: other) was 165 % of control and 167 % of control and the T/C (dose: 12.5 mg/kg/injection, schedule: Q01DX009 (ip), vehicle: saline with Tween-80) was 151 % of control. For the same compound, the T/C (dose: 12.5 mg/kg/injection, schedule: Q01DX009 (oral), vehicle: distilled water + Tween-80) was 103 % of control, the T/C (dose: 18.75 mg/kg/injection, schedule: Q01DX009 (ip), vehicle: saline with Tween-80) was 166 % of control and 167 % of control and the T/C (dose: 24.0 mg/kg/injection, schedule: Q01DX001 (oral), vehicle: other) was 100 % of control. For the same compound, the T/C (dose: 24.0 mg/kg/injection, schedule: Q01DX005 (ip), vehicle: other) was 178 % of control, the T/C (dose: 24.0 mg/kg/injection, schedule: Q01DX005 (oral), vehicle: other) was 102 % of control and the T/C (dose: 24.0 mg/kg/injection, schedule: Q01DX009 (ip), vehicle: other) was 184 % of control. The T/C (dose: 24.0 mg/kg/injection, schedule: Q01DX009 (oral), vehicle: other) was 102 % of control, the T/C (dose: 25.0 mg/kg/injection, schedule: Q01DX005 (ip), vehicle: Klucel (hydroxypropylcellulose) (HPC)) was 154 % of control and 168 % of control and 179 % of control and the T/C (dose: 25.0 mg/kg/injection, schedule: Q01DX005 (ip), vehicle: other) was 199 % of control. For the same compound, the T/C (dose: 25.0 mg/kg/injection, schedule: Q01DX005 (ip), vehicle: saline with Tween-80) was 162 % of control, the T/C (dose: 25.0 mg/kg/injection, schedule: Q01DX009 (ip), vehicle: Klucel (hydroxypropylcellulose) (HPC)) was 168 % of control and the T/C (dose: 25.0 mg/kg/injection, schedule: Q01DX009 (ip), vehicle: other) was 100 % of control. The T/C (dose: 25.0 mg/kg/injection, schedule: Q01DX009 (ip), vehicle: saline with Tween-80) was 166 % of control, the T/C (dose: 25.0 mg/kg/injection, schedule: Q01DX009 (oral), vehicle: distilled water + Tween-80) was 92 % of control and the T/C (dose: 40.0 mg/kg/injection, schedule: Q01DX009 (ip), vehicle: Klucel (hydroxypropylcellulose) (HPC)) was 155 % of control. The T/C (dose: 48.0 mg/kg/injection, schedule: Q01DX001 (ip), vehicle: other) was 168 % of control, the T/C (dose: 48.0 mg/kg/injection, schedule: Q01DX001 (oral), vehicle: other) was 100 % of control and the T/C (dose: 48.0 mg/kg/injection, schedule: Q01DX005 (ip), vehicle: other) was 174 % of control. For the same compound, the T/C (dose: 48.0 mg/kg/injection, schedule: Q01DX005 (oral), vehicle: other) was 107 % of control, the T/C (dose: 48.0 mg/kg/injection, schedule: Q01DX009 (ip), vehicle: other) was 106 % of control and the T/C (dose: 48.0 mg/kg/injection, schedule: Q01DX009 (oral), vehicle: other) was 119 % of control. For the same compound, the T/C (dose: 50.0 mg/kg/injection, schedule: Q01DX005 (ip), vehicle: Klucel (hydroxypropylcellulose) (HPC)) was 163 % of control and 205 % of control and 206 % of control, the T/C (dose: 50.0 mg/kg/injection, schedule: Q01DX005 (ip), vehicle: other) was 186 % of control and the T/C (dose: 50.0 mg/kg/injection, schedule: Q01DX009 (ip), vehicle: Klucel (hydroxypropylcellulose) (HPC)) was 239 % of control. For the same compound, the T/C (dose: 50.0 mg/kg/injection, schedule: Q01DX009 (ip), vehicle: saline with Tween-80) was 187 % of control, the T/C (dose: 50.0 mg/kg/injection, schedule: Q01DX009 (oral), vehicle: distilled water + Tween-80) was 110 % of control and the T/C (dose: 60.0 mg/kg/injection, schedule: Q01DX005 (ip), vehicle: saline with Tween-80) was 151 % of control. The T/C (dose: 100.0 mg/kg/injection, schedule: Q01DX005 (ip), vehicle: saline with Tween-80) was 90 % of control, the T/C (dose: 100.0 mg/kg/injection, schedule: Q01DX009 (ip), vehicle: distilled water + Tween-80) was 113 % of control and the T/C (dose: 100.0 mg/kg/injection, schedule: Q01DX009 (ip), vehicle: saline with Tween-80) was 177 % of control. The T/C (dose: 100.0 mg/kg/injection, schedule: Q01DX009 (oral), vehicle: distilled water + Tween-80) was 97 % of control, the T/C (dose: 200.0 mg/kg/injection, schedule: Q01DX005 (ip), vehicle: distilled water + Tween-80) was 104 % of control and the T/C (dose: 200.0 mg/kg/injection, schedule: Q01DX009 (oral), vehicle: distilled water + Tween-80) was 111 % of control.

Source: PubChem BioAssay AID330 (DTP/NCI, 2004)
